Assay results reported in article PMC12222587, “A2B adenosine receptor-triggered intracellular calcium mobilization: Cell type-dependent involvement of Gi, Gq, Gs proteins and protein kinase C” (Purinergic Signalling, 2025).
“Also recorded” adds a separate entry of the source. *1 amine or outer side, *2 acyl side, *3 side chain or, on linkers, in order; H or OH if unused. Where a SMILES comes first, the peptide text is derived from it. Bridges are numbered along the chain shown (N, C = ends). [ ]: non-standard residue; d: D form. The star is where a group is joined. Leu(3R-OH,Nα-propionyl) = CCC(=O)N[C@H](C(=O)*)[C@H](O)C(C)C; X1 = CC(C)[C@@H](O[*:3])[C@H](N[*:1])C(=O)[*:2]; NMeT = CN[C@H](C(=O)O)[C@@H](C)O; dPhLac = O=C(O)[C@H](O)Cc1ccccc1; NMeA = CN[C@@H](C)C(=O)O; NMeDha = C=C(NC)C(=O)O

Experiments:
[1] = test system: endogenous adenosine receptors; assay: cAMP accumulation, MDA-MB-231 cells expressing endogenous adenosine receptors; type: cell-based, human
Experimental: (§1) HEK293, T24 bladder cancer and MDA-MB-231 breast cell lines were cultured in DMEM medium containing 10% fetal bovine serum, 100 units/ml penicillin, 100 μg/ml streptomycin, and 2 μmol/ml glutamine. For the assay of 3′,5′-cyclic adenosine monophosphate (cAMP), cells were plated in 96-well (4 × 10^4 cells/well) clear plates in 100 μl of medium overnight. Cell culture medium was then replaced with 80 µl HBSS buffer containing 20 mM HEPES, phosphodiesterase inhibitor rolipram (10 μM), and 3 units/ml adenosine deaminase (Worthington Biochemical, Lakewood, NJ, USA) for 30 min followed by agonist addition to the mixture, which was then incubated for 20 min. The treatment of YM or FR was 20 min before agonist addition.

[2] = molecular target: T1, A2AAR (Homo sapiens, UniProt P29274); assay: cAMP accumulation, HEK293 cells, A2AAR-mediated stimulation (CGS21680); type: cell-based
T1 construct: host or cells: HEK293
Experimental: as §1

[3] = test system: P2Y12 receptor; parameters: method as in PMID 26954502; settings: overexpressed in CHO or 1321N1 astrocytoma cells; FR 100 nM; cited from earlier work
[4] = test system: M3 acetylcholine receptor; parameters: method as in PMID 26954502; settings: FR at 100 and 300 nM; cited from earlier work
[5] = test system: M2 muscarinic acetylcholine receptor; settings: overexpressed in CHO or 1321N1 astrocytoma cells; FR 100 nM; cited from earlier work
[6] = test system: P2Y1 receptor; parameters: method as in PMID 26954502; settings: FR at both 100 and 300 nM; cited from earlier work
[7] = molecular target: T2, A2BAR (Homo sapiens, UniProt P29275); assay: Intracellular calcium mobilization, T24 bladder cancer cells, native A2BAR (NECA); type: cell-based; settings: T24 cells
T2 sequence (P29275 1-332): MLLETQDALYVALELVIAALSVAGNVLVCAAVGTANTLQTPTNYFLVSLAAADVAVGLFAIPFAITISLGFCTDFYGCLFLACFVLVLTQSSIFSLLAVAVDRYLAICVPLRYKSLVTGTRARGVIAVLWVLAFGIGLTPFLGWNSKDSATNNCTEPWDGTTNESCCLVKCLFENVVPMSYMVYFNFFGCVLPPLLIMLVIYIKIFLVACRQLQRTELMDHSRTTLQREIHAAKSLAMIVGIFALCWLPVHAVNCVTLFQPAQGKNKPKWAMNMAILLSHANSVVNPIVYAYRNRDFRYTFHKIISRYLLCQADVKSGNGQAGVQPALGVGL

[8] = test system: A1AR; settings: overexpressed in CHO or 1321N1 astrocytoma cells; FR 100 nM; cited from earlier work
[9] = molecular target: T3, A1AR (Homo sapiens, UniProt P30542); assay: Intracellular calcium mobilization, HEK293 cells expressing recombinant A1AR (CCPA); type: cell-based
T3 construct: expressed in transfected cells
T3 sequence (P30542 1-326): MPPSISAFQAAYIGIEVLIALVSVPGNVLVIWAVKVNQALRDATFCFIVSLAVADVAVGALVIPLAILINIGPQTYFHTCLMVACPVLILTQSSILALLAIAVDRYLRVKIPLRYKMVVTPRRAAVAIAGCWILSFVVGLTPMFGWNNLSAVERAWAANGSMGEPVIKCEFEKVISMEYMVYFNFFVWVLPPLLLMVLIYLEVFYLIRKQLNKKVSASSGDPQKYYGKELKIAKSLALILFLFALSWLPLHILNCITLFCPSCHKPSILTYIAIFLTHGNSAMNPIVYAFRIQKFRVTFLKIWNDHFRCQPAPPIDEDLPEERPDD

[10] = molecular target: T4, P2Y1R (Homo sapiens, UniProt P47900); assay: Intracellular calcium mobilization, T24 bladder cancer cells, native P2Y1R (MRS2365); type: cell-based; settings: for Effect on native P2Y1R (MRS2365)-triggered calcium mobilization: YM 300 nM, FR 300 nM, PTX 200 ng/ml overnight
[11] = test system: A1AR; settings: FR 100 nM; small but significant; cited from earlier work
[12] = molecular target: T4, P2Y1R; assay: Intracellular calcium mobilization, HEK293 cells, native P2Y1R (MRS2365); type: cell-based
[13] = test system: A1AR; settings: FR 100 nM; cited from earlier work
[14] = test system: A1AR; settings: CHO cells; FR 300 nM; cited from earlier work
[15] = test system: P2Y1 receptor; parameters: method as in PMID 26954502; settings: FR at 100 and 300 nM; cited from earlier work
[16] = molecular target: β2-adrenergic receptor (Homo sapiens, UniProt P07550); assay: Intracellular calcium mobilization, T24 bladder cancer cells, endogenous β2-adrenergic receptor; type: cell-based; settings: T24 cells, FR 300 nM, PMA 1 µM
[17] = test system: A2B adenosine receptor; parameters: method as in PMID 26954502; settings: CHO cells; FR 300 nM; cited from earlier work
[18] = test system: M3 acetylcholine receptor; parameters: method as in PMID 26954502; settings: FR at both 100 and 300 nM; cited from earlier work
[19] = molecular target: T3, A1AR; assay: cAMP accumulation, HEK293 cells, A1AR-mediated inhibition of forskolin-stimulated cAMP (CCPA); type: cell-based
Experimental: as §1

[20] = GO 20 min, then PMA 20 min before agonist

T4 sequence (P47900 whole entry): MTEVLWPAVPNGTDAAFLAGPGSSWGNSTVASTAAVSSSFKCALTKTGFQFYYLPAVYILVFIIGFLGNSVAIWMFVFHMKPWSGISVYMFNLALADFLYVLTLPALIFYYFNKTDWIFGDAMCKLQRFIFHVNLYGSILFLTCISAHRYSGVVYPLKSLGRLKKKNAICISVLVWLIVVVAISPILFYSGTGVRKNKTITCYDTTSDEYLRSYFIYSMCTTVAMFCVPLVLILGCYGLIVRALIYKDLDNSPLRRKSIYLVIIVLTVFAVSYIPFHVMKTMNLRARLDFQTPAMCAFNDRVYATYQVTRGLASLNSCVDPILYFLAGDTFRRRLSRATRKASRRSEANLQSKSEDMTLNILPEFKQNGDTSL
Chain of β2-adrenergic receptor (P07550 whole entry): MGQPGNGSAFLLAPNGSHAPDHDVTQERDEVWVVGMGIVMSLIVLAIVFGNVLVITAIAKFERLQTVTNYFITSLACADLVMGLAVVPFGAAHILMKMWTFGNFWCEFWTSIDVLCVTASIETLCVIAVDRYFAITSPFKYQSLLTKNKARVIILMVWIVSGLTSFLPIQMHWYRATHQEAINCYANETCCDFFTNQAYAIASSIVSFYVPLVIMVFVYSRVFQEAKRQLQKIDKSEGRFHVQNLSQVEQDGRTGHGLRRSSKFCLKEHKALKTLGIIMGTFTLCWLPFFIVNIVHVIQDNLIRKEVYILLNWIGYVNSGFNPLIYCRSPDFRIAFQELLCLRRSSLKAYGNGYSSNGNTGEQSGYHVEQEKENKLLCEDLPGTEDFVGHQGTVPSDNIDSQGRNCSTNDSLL
T1 sequence (P29274 whole entry): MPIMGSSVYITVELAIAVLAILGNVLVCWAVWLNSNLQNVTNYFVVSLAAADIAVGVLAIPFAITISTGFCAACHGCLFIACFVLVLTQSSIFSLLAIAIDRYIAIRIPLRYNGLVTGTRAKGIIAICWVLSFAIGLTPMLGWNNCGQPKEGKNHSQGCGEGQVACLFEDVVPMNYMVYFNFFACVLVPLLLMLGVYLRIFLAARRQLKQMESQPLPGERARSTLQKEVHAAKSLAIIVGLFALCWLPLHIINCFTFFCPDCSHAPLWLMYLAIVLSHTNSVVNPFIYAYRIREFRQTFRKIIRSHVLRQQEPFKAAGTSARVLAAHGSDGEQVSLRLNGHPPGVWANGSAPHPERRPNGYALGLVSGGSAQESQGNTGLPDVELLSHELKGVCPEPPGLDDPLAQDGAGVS

SMILES: CCNC(=O)[C@H]1O[C@@H](n2cnc3c(N)nc(NCCc4ccc(CCC(=O)O)cc4)nc32)[C@H](O)[C@@H]1O [CGS21680]
- EC50 [1]: 2240 ± 850 nM

SMILES: C=C1C(=O)N[C@@H](C)C(=O)N(C)[C@@H](C)C(=O)N[C@@H]([C@H](OC(=O)[C@@H](NC(=O)CC)[C@H](O)C(C)C)C(C)C)C(=O)N(C)[C@@H]([C@@H](C)OC)C(=O)O[C@H](C(C)C)[C@H](NC(C)=O)C(=O)O[C@H](Cc2ccccc2)C(=O)N1C [FR, FR900359] (Ac-[X1][dPhLac][NMeDha]A[NMeA][X1](Leu(3R-OH,Nα-propionyl))[NMeT](Me); ester 1-C)
- Effect on A2AAR-mediated stimulation of cAMP accumulation [2]: did not affect
- Effect on Giβγ-mediated calcium mobilization, or IP1 accumulation, upon P2Y12R activation [3]: nearly complete inhibition
- Effect on calcium response triggered by the M3 acetylcholine receptor [4]: completely inhibited
- Effect on Giβγ-mediated calcium mobilization, or IP1 accumulation, upon M2 receptor activation [5]: nearly complete inhibition
- Effect on ERK1/2 activity triggered by the P2Y1 receptor [6]: only partially inhibited
- Effect on native A2BAR (NECA)-triggered calcium mobilization ([7]; YM 300 nM, FR 300 nM, PTX 200 ng/ml, CTX 500 ng/ml overnight, other inhibitors 20 min before NECA): FR and YM insensitive (4); Gαq/11 siRNA insensitive (4)
- Effect on Giβγ-mediated calcium mobilization, or IP1 accumulation, upon A1AR activation [8]: nearly complete inhibition
- Effect on A1AR (CCPA)-mediated calcium mobilization ([9]; HEK293 cells overexpressing A1AR, Gq/11 siRNA 250 nM, PTX 200 ng/ml overnight, FR, YM 20 min before agonist): inhibited; also recorded: YM and FR – fully sensitive (2)
- IC50 ([9]; HEK293 cells, overexpressed A1AR, agonist CCPA 1 µM, read-out: IC50 for inhibition of A1AR-mediated calcium mobilization): 8.66 ± 3.23 nM
- Effect on native P2Y1R (MRS2365)-triggered calcium mobilization [10]: completely inhibited
- Inhibition of A1AR-mediated ERK1/2 activity [11]: < 30%
- Effect on P2Y1R (MRS2365)-mediated calcium mobilization ([12]; Gq/11 siRNA 250 nM, PTX 200 ng/ml overnight, FR, YM 20 min before agonist): inhibited; also recorded: fully sensitive
- IC50 ([12]; agonist MRS2365 1 µM, read-out: IC50 to inhibit P2Y1R-mediated calcium mobilization): 13.2 ± 3.2 nM
- Effect on A1AR-mediated Akt1/2/3 phosphorylation [13]: no effect
- Effect on A1AR-Gαi-mediated inhibition of forskolin-stimulated cAMP accumulation [14]: no effect
- Effect on calcium response triggered by the P2Y1 receptor [15]: completely inhibited
- Effect on isoproterenol-induced calcium mobilization (β2-adrenergic receptor) [16]: diminished
- Effect on formoterol-induced calcium mobilization (β2-adrenergic receptor) ([16]; YM 1 µM, PTX 200 ng/ml, CTX 500 ng/ml): diminished
- Effect on A2BAR-Gαs-mediated cAMP accumulation [17]: no effect
- Effect on ERK1/2 activity triggered by the M3 acetylcholine receptor [18]: only partially inhibited
- Effect on A1AR-mediated inhibition of cAMP accumulation [19]: did not affect

SMILES: COc1ccc2c(c1)c(C1=C(c3c[nH]c4ccccc34)C(=O)NC1=O)cn2CCCN(C)C [GO]
- Effect of pretreatment on the PMA effect at A2BAR-triggered Ca2+ increase [7, 20]: eliminated the effect of PMA
- Effect of pretreatment on the PMA effect at P2Y1R-triggered Ca2+ increase [10, 20]: eliminated the effect of PMA
- Effect on native P2Y1R (MRS2365)-triggered calcium mobilization [10]: significantly enhanced

SMILES: CSc1nc(N)c2ncn([C@H]3[C@H](O)[C@H](O)[C@]4(COP(=O)(O)OP(=O)(O)O)C[C@H]34)c2n1 [MRS2365]
- EC50 ([10]; absence of PTX): 1.38 ± 0.26 nM

SMILES: CCNC(=O)[C@H]1O[C@@H](n2cnc3c(N)ncnc32)[C@H](O)[C@@H]1O [NECA, adenosine-5′-N-ethyluronamide]
- EC50 [1]: 73.1 ± 18.2 nM
